# Source: PubChem BioAssay (NCI)
#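 Test compounds were applied to cells in 96-well plates for 48 hours at 5 doses. GI50 marks 50% less growth. TGI: concentration producing complete growth inhibition.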
# Experiments:
# Experiment in all cases: NCI anticancer screen, dose series, 48 h
# CCRF-CEM leukemia = tested on: CCRF-CEM leukemia
# SN12C renal = tested on: SN12C renal
# OVCAR-4 ovarian = tested on: OVCAR-4 ovarian
# SR leukemia = tested on: SR leukemia
# SNB-78 CNS = tested on: SNB-78 CNS
# DMS 273 small cell lung = tested on: DMS 273 small cell lung
# NCI-H226 lung = tested on: NCI-H226 lung
# XF 498 CNS = tested on: XF 498 CNS
# SF-539 CNS = tested on: SF-539 CNS
# M19-MEL melanoma = tested on: M19-MEL melanoma
# DLD-1 colon = tested on: DLD-1 colon
# LXFL 529 NSCLC = tested on: LXFL 529 NSCLC
# HOP-62 NSCLC = tested on: HOP-62 NSCLC
# HCT-15 colon = tested on: HCT-15 colon
# KM20L2 colon = tested on: KM20L2 colon
# KM12 colon = tested on: KM12 colon
# SK-OV-3 ovarian = tested on: SK-OV-3 ovarian
# M14 melanoma = tested on: M14 melanoma
# UO-31 renal = tested on: UO-31 renal
# HCT-116 colon = tested on: HCT-116 colon
# RXF 393 renal = tested on: RXF 393 renal
# HT29 colon = tested on: HT29 colon
# UACC-62 melanoma = tested on: UACC-62 melanoma
# OVCAR-8 ovarian = tested on: OVCAR-8 ovarian
# LOX IMVI melanoma = tested on: LOX IMVI melanoma
# SK-MEL-28 melanoma = tested on: SK-MEL-28 melanoma
# K-562 leukemia = tested on: K-562 leukemia
# MOLT-4 leukemia = tested on: MOLT-4 leukemia
# IGROV1 ovarian = tested on: IGROV1 ovarian
# SF-268 CNS = tested on: SF-268 CNS
# NCI-H23 lung = tested on: NCI-H23 lung
# ACHN renal = tested on: ACHN renal
# SNB-19 CNS = tested on: SNB-19 CNS
# SF-295 CNS = tested on: SF-295 CNS
# RPMI-8226 leukemia = tested on: RPMI-8226 leukemia
# 786-0 renal = tested on: 786-0 renal
# SK-MEL-5 melanoma = tested on: SK-MEL-5 melanoma
# COLO 205 colon = tested on: COLO 205 colon
# TK-10 renal = tested on: TK-10 renal
# SW-620 colon = tested on: SW-620 colon
# HCC-2998 colon = tested on: HCC-2998 colon
# SNB-75 CNS = tested on: SNB-75 CNS
# UACC-257 melanoma = tested on: UACC-257 melanoma
# DMS 114 small cell lung = tested on: DMS 114 small cell lung
# OVCAR-3 ovarian = tested on: OVCAR-3 ovarian
# U251 CNS = tested on: U251 CNS
# A549 NSCLC = tested on: A549 NSCLC
# EKVX NSCLC = tested on: EKVX NSCLC
# OVCAR-5 ovarian = tested on: OVCAR-5 ovarian
# NCI-H460 lung = tested on: NCI-H460 lung
# HL-60(TB) leukemia = tested on: HL-60(TB) leukemia
smiles,measurement,setting,value
CC(C)=O.O=C([O-])C(F)(F)F.O=C([O-])C(F)(F)F.O=C([O-])C(F)(F)F.O=C([O-])C(F)(F)F.[Rh+2].[Rh+2],GI50,CCRF-CEM leukemia,35.5 µM
same,TGI,CCRF-CEM leukemia,> 100 µM
same,GI50,SN12C renal,> 100 µM
same,TGI,SN12C renal,> 100 µM
same,GI50,OVCAR-4 ovarian,69.7 µM
same,TGI,OVCAR-4 ovarian,> 100 µM
same,GI50,SR leukemia,22.2 µM
same,TGI,SR leukemia,> 100 µM
same,GI50,SNB-78 CNS,49.4 µM
same,TGI,SNB-78 CNS,> 100 µM
same,GI50,DMS 273 small cell lung,94.1 µM
same,TGI,DMS 273 small cell lung,> 100 µM
same,GI50,NCI-H226 lung,> 100 µM
same,TGI,NCI-H226 lung,> 100 µM
same,GI50,XF 498 CNS,58 µM
same,TGI,XF 498 CNS,> 100 µM
same,GI50,SF-539 CNS,> 100 µM
same,TGI,SF-539 CNS,> 100 µM
same,GI50,M19-MEL melanoma,47.4 µM
same,TGI,M19-MEL melanoma,> 100 µM
same,GI50,DLD-1 colon,> 100 µM
same,TGI,DLD-1 colon,> 100 µM
same,GI50,LXFL 529 NSCLC,31 µM
same,TGI,LXFL 529 NSCLC,> 100 µM
same,GI50,HOP-62 NSCLC,> 100 µM
same,TGI,HOP-62 NSCLC,> 100 µM
same,GI50,HCT-15 colon,> 100 µM
same,TGI,HCT-15 colon,> 100 µM
same,GI50,KM20L2 colon,> 100 µM
same,TGI,KM20L2 colon,> 100 µM
same,GI50,KM12 colon,> 100 µM
same,TGI,KM12 colon,> 100 µM
same,GI50,SK-OV-3 ovarian,> 100 µM
same,TGI,SK-OV-3 ovarian,> 100 µM
same,GI50,M14 melanoma,> 100 µM
same,TGI,M14 melanoma,> 100 µM
same,GI50,UO-31 renal,> 100 µM
same,TGI,UO-31 renal,> 100 µM
same,GI50,HCT-116 colon,54 µM
same,TGI,HCT-116 colon,> 100 µM
same,GI50,RXF 393 renal,> 100 µM
same,TGI,RXF 393 renal,> 100 µM
same,GI50,HT29 colon,> 100 µM
same,TGI,HT29 colon,> 100 µM
same,GI50,UACC-62 melanoma,> 100 µM
same,TGI,UACC-62 melanoma,> 100 µM
same,GI50,OVCAR-8 ovarian,56.1 µM
same,TGI,OVCAR-8 ovarian,> 100 µM
same,GI50,LOX IMVI melanoma,53.3 µM
same,TGI,LOX IMVI melanoma,> 100 µM
same,GI50,SK-MEL-28 melanoma,94.3 µM
same,TGI,SK-MEL-28 melanoma,> 100 µM
same,GI50,K-562 leukemia,31.8 µM
same,TGI,K-562 leukemia,> 100 µM
same,GI50,MOLT-4 leukemia,15.4 µM
same,TGI,MOLT-4 leukemia,> 100 µM
same,GI50,IGROV1 ovarian,> 100 µM
same,TGI,IGROV1 ovarian,> 100 µM
same,GI50,SF-268 CNS,> 100 µM
same,TGI,SF-268 CNS,> 100 µM
same,GI50,NCI-H23 lung,46.7 µM
same,TGI,NCI-H23 lung,> 100 µM
same,GI50,ACHN renal,50.5 µM
same,TGI,ACHN renal,> 100 µM
same,GI50,SNB-19 CNS,60.4 µM
same,TGI,SNB-19 CNS,> 100 µM
same,GI50,SF-295 CNS,> 100 µM
same,TGI,SF-295 CNS,> 100 µM
same,GI50,RPMI-8226 leukemia,33.2 µM
same,TGI,RPMI-8226 leukemia,> 100 µM
same,GI50,786-0 renal,71.5 µM
same,TGI,786-0 renal,> 100 µM
same,GI50,SK-MEL-5 melanoma,> 100 µM
same,TGI,SK-MEL-5 melanoma,> 100 µM
same,GI50,COLO 205 colon,96.1 µM
same,TGI,COLO 205 colon,> 100 µM
same,GI50,TK-10 renal,81.4 µM
same,TGI,TK-10 renal,> 100 µM
same,GI50,SW-620 colon,65.2 µM
same,TGI,SW-620 colon,> 100 µM
same,GI50,HCC-2998 colon,> 100 µM
same,TGI,HCC-2998 colon,> 100 µM
same,GI50,SNB-75 CNS,58.6 µM
same,TGI,SNB-75 CNS,> 100 µM
same,GI50,UACC-257 melanoma,> 100 µM
same,TGI,UACC-257 melanoma,> 100 µM
same,GI50,DMS 114 small cell lung,26.8 µM
same,TGI,DMS 114 small cell lung,90.3 µM
same,GI50,OVCAR-3 ovarian,> 100 µM
same,TGI,OVCAR-3 ovarian,> 100 µM
same,GI50,U251 CNS,47.5 µM
same,TGI,U251 CNS,> 100 µM
same,GI50,A549 NSCLC,> 100 µM
same,TGI,A549 NSCLC,> 100 µM
same,GI50,EKVX NSCLC,47.2 µM
same,TGI,EKVX NSCLC,> 100 µM
same,GI50,OVCAR-5 ovarian,> 100 µM
same,TGI,OVCAR-5 ovarian,> 100 µM
N#CNC(=NCc1ccccc1)NCCc1c[nH]c2ccccc12,TGI,CCRF-CEM leukemia,> 100 µM
same,TGI,SN12C renal,> 100 µM
same,TGI,OVCAR-4 ovarian,> 100 µM
same,TGI,NCI-H460 lung,> 100 µM
same,TGI,HL-60(TB) leukemia,> 100 µM
same,TGI,SR leukemia,> 100 µM
same,TGI,SNB-78 CNS,> 100 µM
same,TGI,DMS 273 small cell lung,> 100 µM
same,TGI,NCI-H226 lung,> 100 µM
same,TGI,XF 498 CNS,> 100 µM
same,TGI,SF-539 CNS,> 100 µM
same,TGI,M19-MEL melanoma,> 100 µM
same,TGI,DLD-1 colon,> 100 µM
same,TGI,LXFL 529 NSCLC,> 100 µM
same,TGI,HOP-62 NSCLC,> 100 µM
same,TGI,HCT-15 colon,> 100 µM
same,TGI,KM20L2 colon,> 100 µM
same,TGI,KM12 colon,> 100 µM
same,TGI,SK-OV-3 ovarian,> 100 µM
same,TGI,M14 melanoma,> 100 µM
same,TGI,UO-31 renal,86.2 µM
same,TGI,HCT-116 colon,> 100 µM
same,TGI,RXF 393 renal,> 100 µM
same,TGI,HT29 colon,> 100 µM
same,TGI,UACC-62 melanoma,> 100 µM
same,TGI,OVCAR-8 ovarian,> 100 µM
same,TGI,LOX IMVI melanoma,> 100 µM
same,TGI,SK-MEL-28 melanoma,> 100 µM
same,TGI,K-562 leukemia,> 100 µM
same,TGI,MOLT-4 leukemia,> 100 µM
same,TGI,IGROV1 ovarian,> 100 µM
same,TGI,SF-268 CNS,> 100 µM
same,TGI,NCI-H23 lung,> 100 µM
same,TGI,ACHN renal,> 100 µM
same,TGI,SNB-19 CNS,> 100 µM
same,TGI,SF-295 CNS,> 100 µM
same,TGI,RPMI-8226 leukemia,> 100 µM
same,TGI,786-0 renal,83.5 µM
same,TGI,SK-MEL-5 melanoma,83.3 µM
same,TGI,COLO 205 colon,> 100 µM
same,TGI,TK-10 renal,> 100 µM
same,TGI,SW-620 colon,> 100 µM
same,TGI,HCC-2998 colon,> 100 µM
same,TGI,SNB-75 CNS,> 100 µM
same,TGI,UACC-257 melanoma,> 100 µM
same,TGI,DMS 114 small cell lung,> 100 µM
same,TGI,OVCAR-3 ovarian,> 100 µM
same,TGI,U251 CNS,> 100 µM
same,TGI,A549 NSCLC,> 100 µM
same,TGI,EKVX NSCLC,> 100 µM
same,TGI,OVCAR-5 ovarian,> 100 µM
